From PMC2857651, “A Single Amino Acid Change Converts the Sugar Sensor SGLT3 into a Sugar Transporter” (PLoS ONE, 2010) come the findings set out here.

Changes are numbered by the printed parent chain. Names and notes keep the numbering of the source.

Series [1] addresses T1, hSGLT3 (Homo sapiens, UniProt Q9NY91).
T1 construct: gene SLC5A4; full-length cDNA, cRNA expressed in Xenopus laevis oocytes (untagged in the oocyte tests)
T1 sequence (Q9NY91 1-659): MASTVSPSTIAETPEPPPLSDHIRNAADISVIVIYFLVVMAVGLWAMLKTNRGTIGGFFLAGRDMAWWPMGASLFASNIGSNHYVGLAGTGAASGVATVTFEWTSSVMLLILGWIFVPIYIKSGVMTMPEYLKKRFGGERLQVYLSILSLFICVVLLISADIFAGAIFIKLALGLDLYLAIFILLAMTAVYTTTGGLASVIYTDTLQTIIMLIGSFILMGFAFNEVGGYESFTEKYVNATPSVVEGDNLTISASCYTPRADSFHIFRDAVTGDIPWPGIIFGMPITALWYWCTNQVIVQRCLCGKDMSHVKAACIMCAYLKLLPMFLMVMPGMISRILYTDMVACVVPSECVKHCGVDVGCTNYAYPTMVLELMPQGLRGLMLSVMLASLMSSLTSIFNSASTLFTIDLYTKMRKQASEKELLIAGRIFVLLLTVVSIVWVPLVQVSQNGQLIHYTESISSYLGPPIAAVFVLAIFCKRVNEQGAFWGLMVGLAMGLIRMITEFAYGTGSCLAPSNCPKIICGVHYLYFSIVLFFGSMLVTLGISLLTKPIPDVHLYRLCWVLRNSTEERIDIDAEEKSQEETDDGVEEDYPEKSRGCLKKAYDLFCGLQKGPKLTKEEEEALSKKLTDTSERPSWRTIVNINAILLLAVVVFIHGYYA
Kind of series: sugar-induced current, two-electrode voltage clamp in Xenopus oocytes. Type of series: cell-based. Conditions: 150 mM αM-glc, Na+ buffer; bound but not transported. (In general: In two-electrode clamp one electrode senses voltage and the other passes current.)

Series [2] concerns the target T2, hSGLT3 (Homo sapiens, UniProt Q9NY91, E457Q).
T2 construct: gene SLC5A4; full-length cDNA, cRNA expressed in Xenopus laevis oocytes (untagged in the oocyte tests)
T2 sequence (Q9NY91 1-659 E457Q): T1 sequence (Q9NY91 1-659) with E457Q
Kind of series: inhibition of αM-glc-induced depolarization, two-electrode recording in Xenopus oocytes. The series is classed as cell-based. The following applies: read-out: E457Q-hSGLT3 / K0.5. From the text:
inhibition of αM-glc-induced depolarization, two-electrode recording in Xenopus oocytes on hSGLT3

Series [3] concerns the target T1, hSGLT3. Briefly: inhibition of glucose-induced current, two-electrode voltage clamp in Xenopus oocytes. Type of series: cell-based. Conditions: pH 5, glucose present; phlorizin also blocks about two-thirds of the H+-induced current.
Substrate in series [4]: CO[C@H]1O[C@H](CO)[C@@H](O)[C@H](O)[C@H]1O
Briefly: sugar-induced depolarization, two-electrode recording in Xenopus oocytes. Type of series: cell-based, Homo sapiens. Conditions: 100 mM Na+, pH 7.4, room temperature, n = 3. From the text:
sugar-induced depolarization, two-electrode recording in Xenopus oocytes on hSGLT3

In the case of `CO[C@H]1O[C@H](CO)[C@@H](O)[C@H](O)[C@H]1O` [αM-glc], the “sugar-induced current, two-electrode voltage clamp in Xenopus oocytes” value in series [1] was “sugar-induced current (difference between black and open circles in 3D and 3G)”.

Consider `O=C(CCc1ccc(O)cc1)c1c(O)cc(O)cc1O[C@@H]1O[C@H](CO)[C@@H](O)[C@H](O)[C@H]1O` [phlorizin], for which the Ki in series [2] is 1600 ± 90 nM. For the same molecule, the “% inhibition at 100 μM” value in series [3] is 2/3.

B1: hSGLT3 (Homo sapiens; E457Q) (protein)
chain: T1 sequence (Q9NY91 1-659) with E457Q
notes: full-length cDNA, cRNA expressed in Xenopus laevis oocytes (untagged in the oocyte tests)
Regarding B1, the K0.5 in series [4] is 0.5 ± 0.03 mM.
